Reference: patent US20150038707A1, “PROCESS FOR MAKING CGRP RECEPTOR ANTAGONISTS” (Merck Sharp & Dohme Corp., priority 2012, published 2015)

Assays:
[1] = system: Ae. Aegypti, That strain (pyrethroid tolerant); experiment: Contact irritancy on pyrethroid tolerant mosquitoes (Example 5); format: in vivo
Procedure: (§1) Four compounds of formula (I) were tested for contact irritancy (i.e., movement away from the source after physical contact) at low doses on female Aedes aegypti (Thailand strain) mosquitoes. The contact irritant response was determined by use of the contact irritant assay disclosed by Grieco et al. in “A New Classification System for the Actions of IRS Chemicals Traditionally Used for Malaria Control,” Plos One, Issue 8 (2007) (available at www.plosone.org). The assay used was a cylindrical assembly that included a metal treatment end to which 10 mosquitoes were introduced and a clear receiving chamber. The treatment end included a netting strip (nylon organdy) that was treated with the insecticide of interest at the relevant dose. A butterfly valve separated the treatment end from the remainder of the assembly.
(§2) Each composition was applied to the netting strip at a varied dose via a 1.5 ml acetone solution. Four (4) treatment concentrations were used—0.0025 nmol/cm^2, 0.025 nmol/cm^2, 0.25 nmol/cm^2 and 2.5 nmol/cm^2. Netting was allowed to dry for 15 minutes prior to placement in the cylinder. Control assays were performed with netting treated with acetone only.
(§3) For each run, 10 mosquitoes were transferred into the treatment end of the assembly and, after 30 seconds, the butterfly valve was opened. The valve was closed after 10 minutes and the number of mosquitoes in the clear end (i.e., the number of escaped mosquitoes) was tested.
(§4) The contact irritancy protocol of Example 2 was used to determine contact irritancy against mosquitoes (Ae. Aegypti) that had acquired metabolic resistance against pyrethroids. Alphacypermethrin and transfluthrin were also tested. Three mosquito strains were tested—Houston which is pyrethroid susceptible, That which is pyrethroid tolerant and Isla Mujer which is metabolically pyrethroid resistant.

[2] = system: Ae. aegypti Thai strain (pyrethroid tolerant); experiment: Toxicity assay on treated netting (Example 7), Thai strain; format: in vivo
Procedure: (§5) Several compounds were tested to determine their toxic effect on Ae. aegypti mosquitoes. Three mosquito strains were tested—Houston which is pyrethroid susceptible, That which is pyrethroid tolerant and Isla Mujer which is metabolically pyrethroid resistant.
(§6) The toxicity assay involved a single chamber to which treated netting was added. Twenty (20) mosquitoes were transferred to the chamber. After 1 hour, the number of knocked down mosquitoes was recorded and all mosquitoes were transferred to holding cartoons. The mosquitoes were given a 10% sucrose-soaked cotton ball and returned to the insectary. Mortaility was measured after 24 hours. A control assay using acetone-treated netting was used. Six replicates were performed at each treatment concentration.

[3] = system: female Aedes aegypti (Thailand strain) mosquitoes; experiment: Contact irritancy assay on mosquitoes (Example 2); format: in vivo; conditions: netting treated at 0.0025-2.5 nmol/cm^2; 10 minutes
Procedure: as §1, §2, §3

[4] = system: female Aedes aegypti (Thailand strain) mosquitoes; experiment: Spatial repellency assay on mosquitoes (Example 3); format: in vivo; conditions: netting treated at 0.0025-2.5 nmol/cm^2
Procedure: (§7) The four compounds of formula I described in Example 2 were tested for spatial repellency (directed movement away from the chemical source without the insect making physical contact with the treated surface) at low doses on female Aedes aegypti (Thailand strain) mosquitoes. The spatial repellency response was determined by use of the spatial repellency assay disclosed by Grieco et al. in “A New Classification System for the Actions of IRS Chemicals Traditionally Used for Malaria Control” in Plos One, Issue 8 (2007) (available at www.plosone.org) which is incorporated herein by reference for all relevant and consistent purposes. The assay used was a cylindrical assembly that included a treatment chamber at one end and a control chamber at the other end. The treatment chamber included a netting strip (nylon organdy) that was treated with the insecticide of interest at the relevant dose. The treatment chamber and control chamber were connected by a clear cylinder and were separated from the clear cylinder by butterfly valves. Twenty (20) mosquitoes were introduced into the clear central chamber and the butterfly valves were opened after 30 seconds. After 10 minutes, the valves were closed and the number of mosquitoes in each chamber was counted.
The compositions were applied to the net strips by the same methods and at the same concentrations as described in Example 2 above. […]

[5] = system: Ae. aegypti Houston strain (pyrethroid susceptible); experiment: Toxicity assay on treated netting (Example 7), Houston strain; format: in vivo
Procedure: as §5, §6

[6] = system: Ae. Aegypti strains Houston, That and Isla Mujer; experiment: Spatial repellency on metabolically resistant mosquitoes (Example 6); format: in vivo
Procedure: as §7
as §4, with “spatial repellency” for “contact irritancy”, “3” for “2”, “DDT” for “Alphacypermethrin”

[7] = system: female Aedes aegypti (Thailand strain) mosquitoes; experiment: Contact irritancy and spatial repellency screening (Example 4); format: in vivo; conditions: Dosage 25 nmol/cm^2; mapped with 3000 other compounds
Procedure: as §1, §7
Dosage was 25 nmol/cm^2. Several known compounds were also mapped for comparison—alphacypermethrin, cypermethrin, propoxur, bendiocarb, permethrin, SS220, DDT, deet and chlorpyrifos.

[8] = system: Ae. aegypti Isla mujeres strain (metabolically pyrethroid resistant); experiment: Toxicity assay on treated netting (Example 7), Isla mujeres strain; format: in vivo
Procedure: as §5, §6

[9] = system: Ae. Aegypti, Isla Mujer strain (metabolically pyrethroid resistant); experiment: Contact irritancy on metabolically resistant mosquitoes (Example 5); format: in vivo
Procedure: as §1, §2, §3, §4

An. Vestitipennis = conditions: stated as identical to night one of compound 1405; cited from earlier work
[10] = Dose 0.025 nm/cm^2, Time 1 hour
[11] = Dose 0.025 nm/cm^2, Time 24 hours
[12] = Dose 0.25 nm/cm^2, Time 24 hours
[13] = Dose 2.5 nm/cm^2, Time 24 hours
[14] = Dose 0.05 nm/cm^2, Time 24 hours
[15] = Dose 0.0725 nm/cm^2, Time 1 hour
[16] = Dose 0.0725 nm/cm^2, Time 24 hours
[17] = Dose 0.1 nm/cm^2, Time 24 hours
[18] = Dose 0.125 nm/cm^2, Time 1 hour
[19] = Dose 0.125 nm/cm^2, Time 24 hours
[20] = Dose 0.2 nm/cm^2, Time 24 hours

CC1(C)C(C=C(F)F)C1C(=O)OCc1ccc(F)c(C(F)(F)F)c1F (stereo not shown) [Compound 1403]
contact irritancy, tolerant strain (FIG. 4) [1]: contact irritants for tolerant strains
Thai (% dead (SE)) [2, 10]: 15%
Thai (% dead (SE)) [2, 11]: 0%
Thai (% dead (SE)) ([2]; Dose 0.25 nm/cm^2, Time 1 hour): 100%
Thai (% dead (SE)) [2, 12]: 100%
Thai (% dead (SE)) ([2]; Dose 2.5 nm/cm^2, Time 1 hour): 100%
Thai (% dead (SE)) [2, 13]: 100%
contact irritancy (FIG. 1) [3]: showed contact irritancy at relatively low doses
spatial repellency, dose compared with DDT (FIG. 2) [4]: showed repellency at a lower dose than DDT
Houston (% dead (SE)) [5, 10]: 11.76%
Houston (% dead (SE)) [5, 11]: 15.57%
Houston (% dead (SE)) ([5]; Dose 0.05 nm/cm^2, Time 1 hour): 51.3%
Houston (% dead (SE)) [5, 14]: 41.18%
Houston (% dead (SE)) [5, 15]: 100%
Houston (% dead (SE)) [5, 16]: 100%
Houston (% dead (SE)) ([5]; Dose 0.1 nm/cm^2, Time 1 hour): 100%
Houston (% dead (SE)) [5, 17]: 100%
Houston (% dead (SE)) [5, 18]: 100%
Houston (% dead (SE)) [5, 19]: 100%
Houston (% dead (SE)) ([5]; Dose 0.2 nm/cm^2, Time 1 hour): 100%
Houston (% dead (SE)) [5, 20]: 100%
Houston (% dead (SE)) ([5]; Dose 0.25 nm/cm^2, Time 1 hour): 100%
Houston (% dead (SE)) [5, 12]: 100%
Houston (% dead (SE)) ([5]; Dose 2.5 nm/cm^2, Time 1 hour): 100%
Houston (% dead (SE)) [5, 13]: 100%
spatial repellency, all strains (FIG. 5) [6]: spatial repellants for all strains
contact irritancy and spatial repellency relative to screened compounds (FIG. 3) [7]: superior contact irritancy and spatial repellency relative to most screened compounds
Isla mujeres (% dead (SE)) [8, 10]: 0%
Isla mujeres (% dead (SE)) [8, 11]: 1.58%
Isla mujeres (% dead (SE)) ([8]; Dose 0.05 nm/cm^2, Time 1 hour): 0%
Isla mujeres (% dead (SE)) [8, 14]: 5.93%
Isla mujeres (% dead (SE)) [8, 15]: 0%
Isla mujeres (% dead (SE)) [8, 16]: 3.70%
Isla mujeres (% dead (SE)) ([8]; Dose 0.1 nm/cm^2, Time 1 hour): 0%
Isla mujeres (% dead (SE)) [8, 17]: 5.00%
Isla mujeres (% dead (SE)) [8, 18]: 0%
Isla mujeres (% dead (SE)) [8, 19]: 6.00%
Isla mujeres (% dead (SE)) ([8]; Dose 0.2 nm/cm^2, Time 1 hour): 70%
Isla mujeres (% dead (SE)) [8, 20]: 20%
Isla mujeres (% dead (SE)) ([8]; Dose 0.25 nm/cm^2, Time 1 hour): 100%
Isla mujeres (% dead (SE)) [8, 12]: 100%
Isla mujeres (% dead (SE)) ([8]; Dose 2.5 nm/cm^2, Time 1 hour): 100%
Isla mujeres (% dead (SE)) [8, 13]: 100%
toxicity to resistant populations compared with standard compounds ([8]; summary of Table 2): more toxic to resistant populations than permethrin, matfluthrin and transfluthrin
contact irritancy, resistant strain (FIG. 4) [9]: effective in resistant strains

Clc1ccc(C(c2ccc(Cl)cc2)C(Cl)(Cl)Cl)cc1 [DDT, dichlorodiphenyltrichloroethane]
reduction in entering populations observed with DDT (An. Vestitipennis): 97%
